From US11679095B2, “Macrophages/microglia in neuro-inflammation associated with neurodegenerative diseases” (The General Hospital Corporation, priority 2016, dated 2023)
“Also recorded” adds a separate entry of the source. Each block holds one compound with its values, some of them ahead of it.

Key:
[1] = tested on: naïve BV2 microglial cells; assay: CytoTox-ONE lactate dehydrogenase (LDH) toxicity assay; format: cell-based; conditions: 3 hours + 2 hours with Aβ42
Description: On the following day, cells were treated with DMSO (control) or the compounds at different concentrations in proliferating media for 3 hours. […] Afterwards, cells were washed with PBS and treated with DMSO or compounds in the presence of the untagged Aβ42 peptide (400 nM) in DMEM media for 2 hours. Compound toxicity was assessed in the media collected at the end of the treatment with CytoTox-ONETM lactate dehydrogenase (LDH) assay. The remaining cells in the plate were washed with cold PBS and lysed with RIPA buffer supplemented with protease and phosphatase inhibitors. […] Toxic compound concentrations were excluded from further studies. To investigate whether cromolyn derivatives induce cytotoxicity at higher doses, naïve BV2 microglial cells were incubated with DMSO (vehicle) or cromolyn derivatives at different concentrations for 3 hours. The cells were then washed and incubated with DMSO or compounds and soluble untagged Aβ42 for additional 2 hours. Afterwards, the cell media was collected and measured LDH released by the damaged cells to identify the compounds that induce cytolysis.

[2] = Solubility in DMSO (stock solutions); format: physicochemical; conditions: in comparison to the other compounds / earlier aliquot
Description: Therefore, a 25 mM stock solutions for all the compounds except for C3 and C4 were prepared. The stock solutions for C3 and C4 were prepared at 5 mM and 7.5 mM, respectively. C1 is the parent compound—cromolyn disodium.

[3] = tested on: naïve BV2 microglial cells; assay: Aβ42 uptake ELISA, 3 h cromolyn derivative treatment, naïve BV2; format: cell-based; conditions: 3 hours + 2 hours
Description: (§1) To investigate the effect of cromolyn derivatives on Aβ42 uptake in microglia, naïve BV2 or BV2-CD33^WT cells were plated in proliferating media. On the following day, cells were treated with DMSO (control) or the compounds at different concentrations in proliferating media for 3 hours. […] Afterwards, cells were washed with PBS and treated with DMSO or compounds in the presence of the untagged Aβ42 peptide (400 nM) in DMEM media for 2 hours. Compound toxicity was assessed in the media collected at the end of the treatment with CytoTox-ONE™ lactate dehydrogenase (LDH) assay. The remaining cells in the plate were washed with cold PBS and lysed with RIPA buffer supplemented with protease and phosphatase inhibitors. Protein concentrations in the lysate supernatants were determined using the Pierce™ BCA protein assay kit and 2-3 μg/well of total protein from each lysate was analyzed for Aβ42 uptake using the Aβ42 ELISA kit from Wako. Toxic compound concentrations were excluded from further studies.
To test whether cromolyn derivatives modulate Aβ42 uptake, naïve BV2 microglial cells were treated with DMSO (control) or cromolyn derivative compounds at different concentrations for 3 hours. Afterwards, the cells were washed and treated with DMSO or compounds in the presence of untagged Aβ42 peptide for 2 hours. At the end of the treatment, the cell lysates were collected. […]

BV2-CD33^WT cells = assay: Aβ42 uptake ELISA, 3 h cromolyn derivative treatment, BV2-CD33^WT; format: cell-based
Description: as §1
Further, whether cromolyn derivatives impact Aβ42 uptake and clearance in BV2-CD33^WT cells was determined by two independent sets of experiments. BV2-CD33^WT cells were treated with DMSO (control) or cromolyn derivatives at different concentrations ranging between 5 and 150 μM.
The compound C2 was tested with other cromolyn derivatives in the second set of experiments.

BV2 microglial cells = assay: Aβ42 uptake in BV2 microglial cell cultures, cromolyn and/or ibuprofen (ELISA); format: cell-based; conditions: 10 μM, 100 μM, 1 mM; 16 hours, then 3 hours with soluble Aβ42
Description: BV2 microglial cell cultures were treated with cromolyn and/or ibuprofen (10 μM, 100 μM, 1 mM) for 16 hours. Afterwards, cells were incubated with soluble Aβ42 and the compounds for 3 hours. After incubation, cells were collected for ELISA analysis. […] Results were derived from three independent experiments; **p<0.01, ***p<0.001, one-way ANOVA, Tukey's test). Data are represented as mean±SEM.

Structure (SMILES): CC(C)(C)C(=O)OCOC(=O)c1cc(=O)c2c(OCC(O)COc3cccc4oc(C(=O)OCOC(=O)C(C)(C)C)cc(=O)c34)cccc2o1 [C8]
toxicity (LDH released) ([1]; 100 and 150 μM, vs DMSO): showing toxicity; also recorded: increased toxicity
concentration at which toxicity is displayed in LDH assay [1]: ≥ 100 µM

Structure (SMILES): O=C(O)c1cc(=O)c2c(OCC(O)COc3cccc4oc(C(=O)O)cc(=O)c34)cccc2o1 [C1, Cromolyn Disodium, reference compound]
solubility in DMSO [2]: lower solubility in DMSO

Structure (SMILES): O=c1cc(CO)oc2cccc(OCC(F)COc3cccc4oc(CO)cc(=O)c34)c12 [C6]
Aβ42 uptake ([3]; different concentrations): robust inhibition of Aβ42 uptake
Aβ42 uptake (BV2-CD33^WT cells; different concentrations, first set of experiments, vs DMSO): dose-dependent effect in mediating inhibition of Aβ42 uptake

Structure (SMILES): CC(C)Cc1ccc(C(C)C(=O)O)cc1 (stereo not shown) [ibuprofen]
microglial Aβ42 uptake (BV2 microglial cells): not ibuprofen promotes microglial Aβ42 uptake

Now from value to compound, other results behind:

solubility in DMSO [2]: lower solubility in DMSO
Structure (SMILES): CCOC(=O)c1cc(=O)c2c(OCC(O)COc3cccc4oc(C(=O)OCC)cc(=O)c34)cccc2o1 [C3]

IC50 (BV2-CD33^WT cells; GraphPad Prism 7, first set of experiments): 54.7 µM
solubility in DMSO [2]: lower solubility in DMSO
Structure (SMILES): CCOC(=O)c1cc(=O)c2c(OCC(F)COc3cccc4oc(C(=O)OCC)cc(=O)c34)cccc2o1 [C4]
Aβ42 uptake ([3]; 75 μM, vs vehicle): increased uptake of Aβ42 peptide; also recorded: significantly increased Aβ42 uptake levels
Aβ42 uptake (BV2-CD33^WT cells; 50 μM, first set of experiments): dose-dependent effect
Aβ42 uptake in comparison to DMSO (BV2-CD33^WT cells; 75 μM, first set of experiments): two-fold increase; also recorded: increased uptake of Aβ42
Aβ42 uptake (BV2-CD33^WT cells; 75 μM, second set of experiments): most effective in increasing the Aβ42 uptake
Aβ42 uptake (BV2-CD33^WT cells; 50 and 75 μM, second set of experiments, vs DMSO): effectively induced Aβ42 uptake
CD33-mediated inhibition of Aβ uptake and clearance (BV2-CD33^WT cells; both sets of experiments): reversed the CD33-mediated inhibition of Aβ uptake and clearance
Aβ42 uptake (BV2-CD33^WT cells; lower concentrations, second set of experiments, vs DMSO): dose-dependent effect at lower concentrations
